Measurements: ChEMBL document CHEMBL5126563, “Design, synthesis, in silico studies, and antiproliferative evaluations of novel indolin-2-one derivatives containing 3-hydroxy-4-pyridinone fragment” (Bioorg Med Chem Lett, 2022)

Columns and labels:
Type in all cases: functional, cell-based
MOLM-13 = experiment: Cytotoxicity against human MOLM-13 cells measured after 48 hrs by MTT assay; conditions: MOLM-13, 48 h
K562 = experiment: Cytotoxicity against human K562 cells measured after 48 hrs by MTT assay; conditions: K562, 48 h
A549 = experiment: Cytotoxicity against human A549 cells measured after 48 hrs by MTT assay; conditions: A549, 48 h
MCF7 = experiment: Cytotoxicity against human MCF7 cells measured after 48 hrs by MTT assay; conditions: MCF7, 48 h

SMILES | EC50 (MOLM-13) [µM] | EC50 (K562) [µM] | EC50 (A549) [µM] | EC50 (MCF7) [µM]
N#Cc1cc2cc(CN3CCC(Nc4ncnc5sc(CC(F)(F)F)cc45)CC3)c(O)cc2n1Cc1cn[nH]c1 | 0.14 | 2.7 |  | 
CC(=O)Nc1ccc(NC(=O)CN2C(=O)/C(=N\NC(=O)Cn3ccc(=O)c(O)c3C)c3ccccc32)cc1 |  |  | > 100 | 51.9
Cc1c(O)c(=O)ccn1CC(=O)N/N=C1\C(=O)N(CC(=O)Nc2cccc(Cl)c2)c2ccccc21 |  |  | 28 | 34.6
Cc1cccc(NC(=O)CN2C(=O)/C(=N\NC(=O)Cn3ccc(=O)c(O)c3C)c3ccccc32)c1C |  |  | 39.2 | 51.9
Cc1ccc(NC(=O)CN2C(=O)/C(=N\NC(=O)Cn3ccc(=O)c(O)c3C)c3ccccc32)cc1 |  |  | 47.5 | 52.2
Cc1c(O)c(=O)ccn1CC(=O)N/N=C1\C(=O)N(CC(=O)Nc2ccccc2Cl)c2ccccc21 |  |  | > 100 | 46.4
Cc1c(O)c(=O)ccn1CC(=O)N/N=C1\C(=O)N(CC(=O)Nc2ccc(Cl)cc2Cl)c2ccccc21 | 1.62 | 1.81 | 61.5 | 43.2
Cc1c(O)c(=O)ccn1CC(=O)N/N=C1\C(=O)N(CC(=O)Nc2ccccc2)c2ccccc21 |  |  | 29.2 | 48.4
Cc1c(O)c(=O)ccn1CC(=O)N/N=C1\C(=O)N(CC(=O)Nc2cc(Cl)cc(Cl)c2)c2ccccc21 | 0.69 | 1.22 | 22.1 | 35.1
Cc1c(O)c(=O)ccn1CC(=O)N/N=C1\C(=O)N(CC(=O)Nc2ccc(Cl)cc2)c2ccccc21 |  |  | 28.3 | 31.4
Cc1c(O)c(=O)ccn1CC(=O)N/N=C1\C(=O)N(CC(=O)Nc2ccc(Br)cc2)c2ccccc21 | 1.17 | 1.85 | 29.3 | 32.5
COc1ccc(NC(=O)CN2C(=O)/C(=N\NC(=O)Cn3ccc(=O)c(O)c3C)c3ccccc32)cc1 |  |  | 78 | > 100
C#Cc1cccc(Nc2ncnc3cc(OCCOC)c(OCCOC)cc23)c1 [ERLOTINIB] |  |  | 0.29 | 2.83
